Measurements from patent publication US12371454B2, “Cyclic peptide compound having Kras inhibitory action” (priority 2019, dated 2025).
Starred links: 1 amine or outer side, 2 acyl side, 3 side chain; linkers in the order of their positions; H or OH if unused. Positions of bridges follow the written chain, without caps; N, C: chain ends. Non-standard residues stand in square brackets, D forms with d. Residues, ends and D or L forms follow the SMILES beside them. *: point of attachment. hPhe(3-Cl-4-CF3) = N[C@@H](CCc1ccc(C(F)(F)F)c(Cl)c1)C(=O)O; hPhe(4-CF3) = N[C@@H](CCc1ccc(C(F)(F)F)cc1)C(=O)O; X5 = CC(C)(C)NC(=O)COC[C@H](CC(=O)[*:1])N[*:2]; NMePhe(4-Cl) = CN[C@@H](Cc1ccc(Cl)cc1)C(=O)O; NMePhe(2-CN) = CN[C@@H](Cc1ccccc1C#N)C(=O)O; NMePhe(4-Me) = CN[C@@H](Cc1ccc(C)cc1)C(=O)O; NMePhe(3-F) = CN[C@@H](Cc1cccc(F)c1)C(=O)O; hPhe(3-Cl) = N[C@@H](CCc1cccc(Cl)c1)C(=O)O; hPhe(4-Cl) = N[C@@H](CCc1ccc(Cl)cc1)C(=O)O; NMedβ3hAla = C[C@H](CC(=O)[*:2])N(C)[*:1]; Oic = O=C(O)[C@@H]1C[C@@H]2CCCC[C@@H]2N1; NMeGly(cPent) = CN[C@H](C(=O)O)C1CCCC1; Phe(3-I) = N[C@@H](Cc1cccc(I)c1)C(=O)O; Pro(4,4-F2) = O=C(O)[C@@H]1CC(F)(F)CN1; NMeGly(cBu) = CN[C@H](C(=O)O)C1CCC1; NMeCha = CN[C@@H](CC1CCCCC1)C(=O)O; NMeChg = CN[C@H](C(=O)O)C1CCCCC1; hPhe = N[C@@H](CCc1ccccc1)C(=O)O; NMeD = CN[C@@H](CC(=O)O)C(=O)O; NMeL = CN[C@@H](CC(C)C)C(=O)O; Chg = N[C@H](C(=O)O)C1CCCCC1; NMeV = CN[C@H](C(=O)O)C(C)C; d(β3hA) = C[C@@H](N)CC(=O)O; NMeS = CN[C@@H](CO)C(=O)O; hSer = N[C@@H](CCO)C(=O)O; NMeA = CN[C@@H](C)C(=O)O; NMeAib = CNC(C)(C)C(=O)O; Nle = CCCC[C@H](N)C(=O)O; Piperidide = C1CCN(*)CC1; Ac5c = NC1(C(=O)O)CCCC1; Aze = O=C(O)[C@@H]1CCN1; Ac4c = NC1(C(=O)O)CCC1; Aib = CC(C)(N)C(=O)O; X47 = Fc1cncc(C*)c1; Sar = CNCC(=O)O

What follows are compounds tested against T1, Kras and SOS1 (biotin-tagged human Kras loaded with GDP, His-tagged human SOS1) (Homo sapiens, UniProt P01116, G12D) (assay: Protein-protein interaction inhibition between Kras and SOS1 (KrasGl2D-SOS PPI) using AlphaScreen). Conditions: AlphaScreen; biotin-tagged human Kras loaded with GDP, His-tagged human SOS1; read-out: KRAS G12D-SOS PPI IC50.
T1 construct: made in house; host or cells: E. coli (stated for Kras only)
T1 sequence (P01116 1-188 isoform P01116-2 G12D): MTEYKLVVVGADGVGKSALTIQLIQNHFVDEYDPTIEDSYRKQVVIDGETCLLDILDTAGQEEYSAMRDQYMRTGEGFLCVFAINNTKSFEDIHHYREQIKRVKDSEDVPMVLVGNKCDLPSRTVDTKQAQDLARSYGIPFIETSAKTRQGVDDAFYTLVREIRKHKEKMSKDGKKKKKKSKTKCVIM
Assay type: binding
Method in brief: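 Energy transfer from nickel-chelate donor beads bound to His-SOS1 to streptavidin acceptor beads bound to biotin-Kras, expressed in E. coli and loaded with GDP after purification, was monitored. Donors were excited at 680 nm; singlet oxygen reaching acceptors gave emission read at 520-620 nm.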

SMILES | IC50 [nM]
CC[C@H](C)[C@@H]1NC(=O)[C@H](CC(C)C)N(C)C(=O)C[C@@H](C)NC(=O)[C@H](CC(C)C)N(C)C(=O)C(C)(C)NC(=O)[C@@H]2C[C@@H]3CCCC[C@@H]3N2C(=O)[C@H](CCc2ccc(C(F)(F)F)cc2)NC(=O)CN(C)C(=O)[C@H](Cc2ccc(Cl)cc2)N(C)C(=O)CN(C)C(=O)CN(C)C1=O [Compound 922] (cyclo([Aib][NMeL][d(β3hA)][NMeL]I[Sar][Sar][NMePhe(4-Cl)][Sar][hPhe(4-CF3)][Oic])) | 230
CC[C@H](C)[C@@H]1NC(=O)[C@H](CC(C)C)N(C)C(=O)C[C@@H](C(=O)N2CCCCC2)N(C)C(=O)[C@H](CC(C)C)NC(=O)C(C)(C)N(C)C(=O)[C@H](CCc2ccccc2)NC(=O)[C@H](Cc2cccc(I)c2)NC(=O)CN(C)C(=O)[C@H](CC2CCCCC2)N(C)C(=O)[C@@H]2CCN2C(=O)CN(C)C1=O [Compound 931] ([NMeL]I[Sar][Aze][NMeCha][Sar][Phe(3-I)][hPhe][NMeAib]L[NMeD]-Piperidide; lactam N-11) | 270
CC[C@H](C)[C@@H]1NC(=O)[C@H](CC(C)C)N(C)C(=O)C[C@@H](C)NC(=O)[C@H](C2CCCC2)N(C)C(=O)[C@H](C(C)C)NC(=O)[C@@H]2CCCN2C(=O)[C@H](CCc2ccc(C(F)(F)F)c(Cl)c2)NC(=O)CN(C)C(=O)[C@H](Cc2ccc(C)cc2)N(C)C(=O)[C@@H]2CCN2C(=O)[C@H](C)N(C)C1=O [Compound 933] (cyclo([Aze][NMePhe(4-Me)][Sar][hPhe(3-Cl-4-CF3)]PV[NMeGly(cPent)][d(β3hA)][NMeL]I[NMeA])) | 83
CCCC[C@@H]1NC(=O)[C@H](Cc2cccc(I)c2)NC(=O)CN(C)C(=O)[C@H](Cc2ccc(Cl)cc2)N(C)C(=O)CN(C)C(=O)CN(C)C(=O)[C@H]([C@@H](C)CC)NC(=O)[C@H](CC(C)C)N(C)C(=O)C[C@@H](C(=O)N2CCCCC2)N(C)C(=O)[C@H](CC(C)C)NC(=O)[C@H](Cc2ccc(Cl)cc2)N(C)C1=O [Compound 934] ([NMeL]I[Sar][Sar][NMePhe(4-Cl)][Sar][Phe(3-I)][Nle][NMePhe(4-Cl)]L[NMeD]-Piperidide; lactam N-11) | 34
CC[C@H](C)[C@@H]1NC(=O)[C@H](CC(C)C)N(C)C(=O)C[C@@H](C(=O)N2CCCCC2)N(C)C(=O)[C@H](C(C)C)N(C)C(=O)C2(CCCC2)NC(=O)[C@@H]2CCCN2C(=O)[C@H](CCc2ccc(C(F)(F)F)c(Cl)c2)NC(=O)CN(C)C(=O)[C@H](Cc2ccccc2C#N)N(C)C(=O)CN(C)C(=O)CN(C)C1=O [Compound 935] ([NMeL]I[Sar][Sar][NMePhe(2-CN)][Sar][hPhe(3-Cl-4-CF3)]P[Ac5c][NMeV][NMeD]-Piperidide; lactam N-11) | 6
CC[C@H](C)[C@@H]1NC(=O)[C@H](CC(C)C)N(C)C(=O)C[C@@H](C(=O)N2CCCCC2)N(C)C(=O)[C@H](C2CCCCC2)N(C)C(=O)C2(CCCC2)NC(=O)[C@@H]2CCCN2C(=O)[C@H](CCc2ccc(C(F)(F)F)c(Cl)c2)NC(=O)CN(C)C(=O)[C@H](C2CCC2)N(C)C(=O)CN(C)C(=O)CN(C)C1=O [Compound 936] ([NMeL]I[Sar][Sar][NMeGly(cBu)][Sar][hPhe(3-Cl-4-CF3)]P[Ac5c][NMeChg][NMeD]-Piperidide; lactam N-11) | 1.1
CC(C)C[C@H]1C(=O)N[C@@H](C2CCCCC2)C(=O)N(C)CC(=O)N(C)CC(=O)N(C)[C@@H](CC2CCCCC2)C(=O)N(C)CC(=O)N[C@@H](CCc2ccc(C(F)(F)F)c(Cl)c2)C(=O)N2CCC[C@H]2C(=O)NC2(CCCC2)C(=O)N(C)[C@@H](C(C)C)C(=O)N[C@H](C)CC(=O)N1C [Compound 937] (cyclo([Ac5c][NMeV][d(β3hA)][NMeL][Chg][Sar][Sar][NMeCha][Sar][hPhe(3-Cl-4-CF3)]P)) | 250
COCC[C@@H]1NC(=O)[C@H](CC(C)C)N(C)C(=O)C[C@@H](C(=O)N2CCCCC2)N(C)C(=O)[C@H](C2CCCCC2)N(C)C(=O)C2(CCCC2)NC(=O)[C@@H]2CCCN2C(=O)[C@H](CCc2ccc(C(F)(F)F)c(Cl)c2)NC(=O)CN(C)C(=O)[C@H](CC2CCCCC2)N(C)C(=O)CN(C)C(=O)CN(C)C1=O [Compound 941] ([NMeL][hSer](Me)[Sar][Sar][NMeCha][Sar][hPhe(3-Cl-4-CF3)]P[Ac5c][NMeChg][NMeD]-Piperidide; lactam N-11) | 3.3
CC[C@H](C)[C@@H]1NC(=O)[C@H](C)N(C)C(=O)C[C@@H](C(=O)N2CCCCC2)N(C)C(=O)[C@H](C(C)C)N(C)C(=O)C2(CCCC2)NC(=O)[C@H](Cc2cccc(F)c2)N(C)C(=O)[C@H](CCc2ccc(C(F)(F)F)c(Cl)c2)NC(=O)CN(C)C(=O)[C@H](CC2CCCCC2)N(C)C(=O)CN(C)C(=O)CN(C)C1=O [Compound 945] ([NMeA]I[Sar][Sar][NMeCha][Sar][hPhe(3-Cl-4-CF3)][NMePhe(3-F)][Ac5c][NMeV][NMeD]-Piperidide; lactam N-11) | 9.8
CC[C@H](C)[C@@H]1NC(=O)[C@H](CC(C)C)N(C)C(=O)C[C@@H](C(=O)N2CCCCC2)N(C)C(=O)[C@H](C2CCCCC2)N(C)C(=O)C2(CCCC2)NC(=O)[C@H](COCc2cncc(F)c2)N(C)C(=O)[C@H](CCc2ccc(C(F)(F)F)c(Cl)c2)NC(=O)CN(C)C(=O)[C@H](CC2CCCCC2)N(C)C(=O)CN(C)C(=O)CN(C)C1=O [Compound 950] ([NMeL]I[Sar][Sar][NMeCha][Sar][hPhe(3-Cl-4-CF3)][NMeS](X47)[Ac5c][NMeChg][NMeD]-Piperidide; lactam N-11) | 9
CC[C@H](C)[C@@H]1NC(=O)[C@H](CC(C)C)N(C)C(=O)C[C@@H](C(=O)N2CCCCC2)N(C)C(=O)[C@H](C(C)C)N(C)C(=O)C2(CCCC2)NC(=O)[C@@H]2CCCN2C(=O)[C@H](CCc2ccc(Cl)cc2)NC(=O)CN(C)C(=O)[C@H](CC2CCCCC2)N(C)C(=O)[C@@H]2CCCN2C(=O)CN(C)C1=O [Compound 953] ([NMeL]I[Sar]P[NMeCha][Sar][hPhe(4-Cl)]P[Ac5c][NMeV][NMeD]-Piperidide; lactam N-11) | 180
CC[C@H](C)[C@@H]1NC(=O)[C@H](C)N(C)C(=O)C[C@@H](C(=O)N2CCCCC2)N(C)C(=O)[C@H](C2CCCCC2)N(C)C(=O)C2(CCCC2)NC(=O)[C@@H]2CCCN2C(=O)[C@H](CCc2cccc(Cl)c2)NC(=O)CN(C)C(=O)[C@H](CC2CCCCC2)N(C)C(=O)CN(C)C(=O)CN(C)C1=O [Compound 954] ([NMeA]I[Sar][Sar][NMeCha][Sar][hPhe(3-Cl)]P[Ac5c][NMeChg][NMeD]-Piperidide; lactam N-11) | 1.9
CC[C@H](C)[C@@H]1NC(=O)[C@H](CC(C)C)N(C)C(=O)C[C@@H](COCC(=O)NC(C)(C)C)NC(=O)[C@H](C(C)C)N(C)C(=O)C2(CCCC2)NC(=O)[C@@H]2CCCN2C(=O)[C@H](CCc2ccc(C(F)(F)F)c(Cl)c2)NC(=O)CN(C)C(=O)[C@H](CC2CCCCC2)N(C)C(=O)CN(C)C(=O)CN(C)C1=O [Compound 955] ([NMeL]I[Sar][Sar][NMeCha][Sar][hPhe(3-Cl-4-CF3)]P[Ac5c][NMeV]; linker N-C via X5) | 26
CC[C@H](C)[C@@H]1NC(=O)[C@H](CC(C)C)N(C)C(=O)C[C@@H](C)N(C)C(=O)[C@H](C2CCCC2)N(C)C(=O)C2(CCC2)NC(=O)[C@@H]2CC(F)(F)CN2C(=O)[C@H](CCc2ccc(C(F)(F)F)c(Cl)c2)NC(=O)CN(C)C(=O)[C@H](CC2CCCCC2)N(C)C(=O)CN(C)C(=O)CN(C)C1=O [Compound 962] (cyclo([Ac4c][NMeGly(cPent)][NMedβ3hAla][NMeL]I[Sar][Sar][NMeCha][Sar][hPhe(3-Cl-4-CF3)][Pro(4,4-F2)])) | 7.8
